According to ChEMBL document CHEMBL1201862, “PubChem BioAssay data set” (2004):
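Dose response: 5 concentrations. Exposure: 48 h. Format: 96-well plates. Endpoint: linear interpolation; highest concentration if not reached. GI50: concentration for 50% inhibition of growth.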 Active and inactive are the calls of the source. Rule as the data show it: active = GI50 up to about 1.1 µM and inactive = higher.

What was measured:
Experiment in all cases: NCI tumour cell line growth inhibition, 48 h
SK-MEL-5 = tested on: SK-MEL-5
SR = tested on: SR
SK-MEL-28 = tested on: SK-MEL-28
CAKI-1 = tested on: CAKI-1
SNB-19 = tested on: SNB-19
SNB-75 = tested on: SNB-75
NCI-H460 = tested on: NCI-H460
IGROV-1 = tested on: IGROV-1
CCRF-CEM = tested on: CCRF-CEM
UACC-62 = tested on: UACC-62
NCI/ADR-RES = tested on: NCI/ADR-RES
MOLT-4 = tested on: MOLT-4
A549 = tested on: A549
SW-620 = tested on: SW-620
PC-3 = tested on: PC-3
MDA-MB-231 = tested on: MDA-MB-231
DU-145 = tested on: DU-145
T47D = tested on: T47D
OVCAR-4 = tested on: OVCAR-4
SF-268 = tested on: SF-268

Measured: GI50

Nc1ccc2nc(-c3cccc(C(F)(F)F)c3)cc(O)c2c1
inactive: SK-MEL-5 22.9 µM | SR 25.1 µM | SK-MEL-28 53.5 µM | CAKI-1 29.6 µM | SNB-19 46.1 µM | SNB-75 27.3 µM | NCI-H460 29.8 µM | IGROV-1 33.5 µM | CCRF-CEM 28.8 µM | UACC-62 53.2 µM | NCI/ADR-RES 92.9 µM | MOLT-4 40.4 µM | A549 71.4 µM | SW-620 62.1 µM | PC-3 23.8 µM | MDA-MB-231 50.7 µM

CN(C)CCNC(=O)c1cccc2c1Oc1c(cccc1[N+](=O)[O-])O2
inactive: SK-MEL-5 1.28 µM | SK-MEL-28 2.02 µM | SNB-75 1.24 µM | IGROV-1 1.56 µM | PC-3 1.95 µM | OVCAR-4 5.04 µM | SF-268 2.97 µM
active: SR 0.462 µM | CAKI-1 0.297 µM | DU-145 0.57 µM | NCI-H460 0.413 µM | CCRF-CEM 0.371 µM | UACC-62 0.419 µM | MOLT-4 0.298 µM | A549 0.458 µM | T47D 0.323 µM | SW-620 1.06 µM

COC(=O)/C=C\n1c(C)cc(=O)[nH]c1=O
inactive: SK-MEL-5 > 100 µM | SR > 100 µM | SK-MEL-28 > 100 µM | SNB-19 > 100 µM | SNB-75 58.2 µM | NCI-H460 > 100 µM | IGROV-1 > 100 µM | CCRF-CEM > 100 µM | UACC-62 > 100 µM | NCI/ADR-RES > 100 µM | MOLT-4 > 100 µM | A549 > 100 µM | T47D > 100 µM | SW-620 > 100 µM | PC-3 > 100 µM | OVCAR-4 > 100 µM | SF-268 > 100 µM

O=C(c1ccc(Cl)cc1)c1ccc(OCCCOc2ccc(C(=O)c3ccc(Cl)cc3)cc2)cc1
inactive: SK-MEL-5 > 100 µM | SR > 100 µM | SK-MEL-28 > 100 µM | CAKI-1 > 100 µM | SNB-19 > 100 µM | SNB-75 33.6 µM | NCI-H460 > 100 µM | IGROV-1 > 100 µM | CCRF-CEM > 100 µM | UACC-62 > 100 µM | MOLT-4 > 100 µM | A549 > 100 µM | SW-620 > 100 µM | OVCAR-4 > 100 µM | SF-268 > 100 µM

CC1=NN2C=Nc3c(c(-c4ccc(Cl)cc4)cn3-c3ccc(C)cc3)C2N1 (configuration not stated)
inactive: SK-MEL-5 87.9 µM | SK-MEL-28 > 100 µM | CAKI-1 97.3 µM | DU-145 > 100 µM | SNB-19 54.5 µM | SNB-75 30.5 µM | NCI-H460 56.6 µM | IGROV-1 76.6 µM | CCRF-CEM > 100 µM | UACC-62 61 µM | NCI/ADR-RES 55.8 µM | A549 > 100 µM | SW-620 > 100 µM | PC-3 32.9 µM | OVCAR-4 6.24 µM | SF-268 71.1 µM | MDA-MB-231 71.1 µM
active: SR 0.288 µM

CSCCCNC(=O)c1csc(-c2csc(CCNC(=O)CNC(=O)OC(C)(C)C)n2)n1
inactive: SK-MEL-5 47.4 µM | SR > 100 µM | SK-MEL-28 > 100 µM | CAKI-1 > 100 µM | DU-145 > 100 µM | SNB-19 > 100 µM | SNB-75 > 100 µM | NCI-H460 > 100 µM | IGROV-1 > 100 µM | CCRF-CEM 43.1 µM | UACC-62 28.6 µM | NCI/ADR-RES > 100 µM | MOLT-4 40.7 µM | A549 > 100 µM | SW-620 > 100 µM | PC-3 > 100 µM | OVCAR-4 > 100 µM | SF-268 > 100 µM | MDA-MB-231 > 100 µM
